Results: PubChem BioAssay AID248 (DTP/NCI, 2004)
Where “and” joins values, the source holds several entries; their conditions need not be identical. Equal entries are not always repeated. Toxic doses and inconclusive results are not listed. No stated cut-off is given here; in the data, active means T/C of 150% or more; inactive means T/C below 125%.

Tested on: L1210 leukemia ip in BDF1 mice, survival T/C
Test: NCI In Vivo Anticancer Drug Screen. Data for tumor model L1210 Leukemia (intraperitoneal) in B6D2F1 (BDF1) mice
Details: endpoint: mean survival time, higher = longer survival
In short: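 Transplanted-tumor mice were given test agent; controls received vehicle only. Survival readings from the two groups were divided (treated over control).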

[1] = dose: 100.0 mg/kg/injection, schedule: Q04DX003 (ip), vehicle: Klucel (hydroxypropylcellulose) (HPC)
[2] = dose: 200.0 mg/kg/injection, schedule: Q04DX003 (ip), vehicle: Klucel (hydroxypropylcellulose) (HPC)
[3] = dose: 400.0 mg/kg/injection, schedule: Q04DX003 (ip), vehicle: Klucel (hydroxypropylcellulose) (HPC)
[4] = dose: 100.0 mg/kg/injection, schedule: Q01DX009 (ip), vehicle: Klucel (hydroxypropylcellulose) (HPC)
[5] = dose: 200.0 mg/kg/injection, schedule: Q01DX009 (ip), vehicle: Klucel (hydroxypropylcellulose) (HPC)
[6] = dose: 400.0 mg/kg/injection, schedule: Q01DX009 (ip), vehicle: Klucel (hydroxypropylcellulose) (HPC)
[7] = dose: 100.0 mg/kg/injection, schedule: Q01DX001 (ip), vehicle: saline with Tween-80
[8] = dose: 100.0 mg/kg/injection, schedule: Q01DX009 (ip), vehicle: saline with Tween-80
[9] = dose: 100.0 mg/kg/injection, schedule: Q04DX003 (ip), vehicle: saline with Tween-80
[10] = dose: 200.0 mg/kg/injection, schedule: Q01DX001 (ip), vehicle: saline with Tween-80
[11] = dose: 200.0 mg/kg/injection, schedule: Q01DX009 (ip), vehicle: saline with Tween-80
[12] = dose: 400.0 mg/kg/injection, schedule: Q01DX001 (ip), vehicle: saline with Tween-80
[13] = dose: 400.0 mg/kg/injection, schedule: Q01DX009 (ip), vehicle: saline with Tween-80
[14] = dose: 400.0 mg/kg/injection, schedule: Q04DX003 (ip), vehicle: saline with Tween-80
[15] = dose: 100.0 mg/kg/injection, schedule: Q01DX009 (ip), vehicle: saline
[16] = dose: 200.0 mg/kg/injection, schedule: Q01DX009 (ip), vehicle: saline

Measured: T/C

Nc1cc(Cl)cc2c1nc(NCCO)c1ccccc12
inactive: [1] 97 % of control | [2] 90 % of control | [3] 98 % of control

Cc1cc(Cl)ccc1NC(=O)c1ccccc1C(=O)O
inactive: [4] 96 % of control | [1] 98 % of control | [5] 93 % of control | [2] 91 % of control | [6] 102 % of control | [3] 93 % of control

CCc1ccc(NC(=S)NC(=O)/C=C/c2ccccc2)cc1
inactive: [7] 92 % of control | [8] 99 % of control and 102 % of control | dose: 100.0 mg/kg/injection, schedule: Q04DX002 (ip), vehicle: alcohol 114 % of control | [9] 92 % of control | [10] 87 % of control | [11] 92 % of control and 96 % of control | dose: 200.0 mg/kg/injection, schedule: Q04DX002 (ip), vehicle: alcohol 90 % of control | [12] 89 % of control | [13] 96 % of control and 105 % of control | dose: 400.0 mg/kg/injection, schedule: Q04DX002 (ip), vehicle: alcohol 97 % of control | [14] 87 % of control

Cc1ccc(-n2c(O)c(N=Nc3ccc(Cl)cc3)c(=O)n(-c3ccc(I)cc3)c2=S)cc1
inactive: dose: 37.5 mg/kg/injection, schedule: Q01DX001 (ip), vehicle: Klucel (hydroxypropylcellulose) (HPC) 92 % of control | dose: 75.0 mg/kg/injection, schedule: Q01DX001 (ip), vehicle: Klucel (hydroxypropylcellulose) (HPC) 97 % of control | dose: 150.0 mg/kg/injection, schedule: Q01DX001 (ip), vehicle: Klucel (hydroxypropylcellulose) (HPC) 100 % of control

CC(C)NC(=O)Oc1cccc(NC(=O)C(C)C)c1
inactive: dose: 25.0 mg/kg/injection, schedule: Q04DX003 (ip), vehicle: saline with Tween-80 101 % of control | dose: 50.0 mg/kg/injection, schedule: Q04DX003 (ip), vehicle: saline with Tween-80 92 % of control | [9] 92 % of control and 95 % of control | [14] 89 % of control

NC(N)=N/N=C/c1cc(Cl)cc(Cl)c1O
inactive: dose: 75.0 mg/kg/injection, schedule: Q01DX001 (ip), vehicle: saline 101 % of control

CCN=C(c1ccc(NC(=O)c2ccc(C(=O)Nc3ccc(C(=NCC)N(CC)C(=O)NCCCl)cc3)cc2)cc1)N(CC)C(=O)NCCCl
inactive: dose: 3.75 mg/kg/injection, schedule: Q01DX015 (ip), vehicle: methylcellulose (MC) 107 % of control | dose: 7.5 mg/kg/injection, schedule: Q01DX015 (ip), vehicle: methylcellulose (MC) 113 % of control

CC(O)C(C)(C)CO (stereo unspecified)
inactive: [15] 94 % of control | [16] 95 % of control | dose: 400.0 mg/kg/injection, schedule: Q01DX009 (ip), vehicle: saline 90 % of control

CC(=O)CC(=O)N1CCCC(C)C1 (stereo unspecified)
inactive: [4] 102 % of control | [1] 104 % of control | [5] 92 % of control | [2] 106 % of control | [6] 96 % of control | [3] 106 % of control

CCOC(=O)c1c(N)sc2c1CCC2
inactive: [7] 110 % of control | [15] 102 % of control | dose: 100.0 mg/kg/injection, schedule: Q04DX002 (ip), vehicle: saline 93 % of control | [10] 103 % of control | [16] 107 % of control | dose: 200.0 mg/kg/injection, schedule: Q04DX002 (ip), vehicle: saline 96 % of control | [12] 98 % of control | dose: 400.0 mg/kg/injection, schedule: Q04DX002 (ip), vehicle: saline 89 % of control

CCC1CCC(NC(=O)c2ccccc2)CC1 (stereo unspecified)
inactive: [8] 92 % of control | [11] 94 % of control | [13] 92 % of control

Cc1ccc2nc3c4ccccc4scc-3c2c1
inactive: dose: 100.0 mg/kg/injection, schedule: Q04DX003 (ip), vehicle: acetone 93 % of control

Nc1ccc(Cc2ccc(Cl)cc2)cc1
inactive: dose: 75.0 mg/kg/injection, schedule: Q01DX001 (ip), vehicle: acetone 94 % of control | dose: 150.0 mg/kg/injection, schedule: Q01DX001 (ip), vehicle: acetone 94 % of control | dose: 300.0 mg/kg/injection, schedule: Q01DX001 (ip), vehicle: acetone 91 % of control

COC1=CCC(OC)=C(C)C1
inactive: dose: 150.0 mg/kg/injection, schedule: Q01DX009 (ip), vehicle: saline 95 % of control | dose: 225.0 mg/kg/injection, schedule: Q01DX009 (ip), vehicle: saline 94 % of control

CC([NH-])CO.CC([NH-])CO.[Cu+2] (stereo unspecified)
inactive: dose: 12.5 mg/kg/injection, schedule: Q01DX001 (ip), vehicle: saline 97 % of control | dose: 25.0 mg/kg/injection, schedule: Q01DX001 (ip), vehicle: saline 108 % of control

CC(=O)[C@@]1(O)CC[C@H]2[C@@H]3C[C@H](C)C4=CC(=O)C=C[C@]4(C)[C@@]3(F)[C@@H](O)C[C@@]21C
inactive: dose: 100.0 mg/kg/injection, schedule: Q01DX001 (sc), vehicle: steriod suspending solution 103 % of control | dose: 100.0 mg/kg/injection, schedule: Q01DX009 (sc), vehicle: steriod suspending solution 115 % of control | dose: 200.0 mg/kg/injection, schedule: Q01DX001 (sc), vehicle: steriod suspending solution 100 % of control | dose: 200.0 mg/kg/injection, schedule: Q01DX009 (sc), vehicle: steriod suspending solution 108 % of control | dose: 400.0 mg/kg/injection, schedule: Q01DX001 (sc), vehicle: steriod suspending solution 103 % of control | dose: 400.0 mg/kg/injection, schedule: Q01DX009 (sc), vehicle: steriod suspending solution 111 % of control | dose: 800.0 mg/kg/injection, schedule: Q01DX001 (sc), vehicle: steriod suspending solution 103 % of control | dose: 800.0 mg/kg/injection, schedule: Q01DX009 (sc), vehicle: steriod suspending solution 101 % of control

N#CCC(=O)NCCc1ccccn1
inactive: dose: 25.0 mg/kg/injection, schedule: Q04DX002 (ip), vehicle: saline with Tween-80 93 % of control | dose: 50.0 mg/kg/injection, schedule: Q04DX002 (ip), vehicle: saline with Tween-80 97 % of control | dose: 100.0 mg/kg/injection, schedule: Q04DX002 (ip), vehicle: saline with Tween-80 98 % of control and 101 % of control

NC(N)=NCCCC(NC(=O)c1ccccc1)C(=O)Nc1ccc([N+](=O)[O-])cc1 (stereo unspecified)
inactive: [8] 89 % of control | dose: 100.0 mg/kg/injection, schedule: Q04DX003 (ip), vehicle: saline 104 % of control | [11] 95 % of control | dose: 200.0 mg/kg/injection, schedule: Q04DX003 (ip), vehicle: saline 100 % of control | [13] 110 % of control | dose: 400.0 mg/kg/injection, schedule: Q04DX003 (ip), vehicle: saline 98 % of control

C=C([Si](C)(C)C)[Si](C)(C)C
inactive: [9] 102 % of control | dose: 200.0 mg/kg/injection, schedule: Q04DX003 (ip), vehicle: saline with Tween-80 102 % of control | [14] 94 % of control

O=C1C=CC(=O)N1Cc1ccncc1
inactive: dose: 100.0 mg/kg/injection, schedule: Q01DX001 (ip), vehicle: saline 101 % of control | dose: 200.0 mg/kg/injection, schedule: Q01DX001 (ip), vehicle: saline 95 % of control | dose: 400.0 mg/kg/injection, schedule: Q01DX001 (ip), vehicle: saline 95 % of control
